Read-outs that look alike come from different tables or passages of the source.
What was measured:
5-HT3 receptors [1] = molecular target: T1, 5-HT3 receptors (Rattus norvegicus, UniProt P35563); experiment: Bezold-Jarish test in the anaesthetised rat (reduction of heart rate); assay type: in vivo; design: evokes in the anaesthetised rat, a short-lived reduction of heart rate (Bezold-Jarish effect); from tissue; host or cells: whole animal: urethane-anaesthetised Sprague-Dawley rat; details: for inhibition of the Bezold-Jarish effect evoked by compounds of formula (I'): anaesthetised rat; for ED50: rat, read-out: ID50 i.v. (dose which inhibits by 50% the heart rate)
T1 sequence (P35563 24-483): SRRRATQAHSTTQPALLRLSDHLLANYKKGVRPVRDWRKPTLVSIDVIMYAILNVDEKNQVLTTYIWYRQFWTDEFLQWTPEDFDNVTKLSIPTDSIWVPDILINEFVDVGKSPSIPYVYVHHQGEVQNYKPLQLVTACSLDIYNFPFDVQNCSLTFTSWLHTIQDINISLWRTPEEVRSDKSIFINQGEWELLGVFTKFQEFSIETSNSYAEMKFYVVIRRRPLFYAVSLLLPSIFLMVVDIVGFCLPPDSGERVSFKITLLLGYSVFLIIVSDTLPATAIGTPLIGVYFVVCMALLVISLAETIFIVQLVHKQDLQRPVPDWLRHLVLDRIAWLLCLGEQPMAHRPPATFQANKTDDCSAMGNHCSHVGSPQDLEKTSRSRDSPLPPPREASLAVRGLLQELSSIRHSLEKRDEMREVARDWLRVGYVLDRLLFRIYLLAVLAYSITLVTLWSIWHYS
Protocol: Selective 5-HT3 agonist activity of the compounds of formula (I') was confirmed in vivo in the Bezold-Jarish test. In this test, intravenous administration of the compounds of formula (I') evokes in the anaesthetised rat, a short-lived reduction of heart rate (Bezold-Jarish effect).
More particularly, the Bezold-Jarish effect evoked by the compounds of formula (I') was evaluated using Sprague-Dawley rats weighing from 200 to 300 g, anaesthetised with urethane 1.25 g/kg i.p. The blood pressure was recorded from the carotid artery and heart rate was evaluated, as pulse frequency, by means of a cardiotachometer. A catheter was inserted into the jugular vein for the administration of the substances.

5-HT3 receptors [2] = experiment: fecal excretion in rats (intestinal prokinetic activity); assay type: in vivo
Protocol: Said activity was investigated by means of a test aimed at evaluating fecal excretion in rats. […] The compounds of formula (I') to be tested were administered subcutaneously. The treatment schedule provided for 8 animals in each group. At the time of drug treatment, the rectal lumen was manually emptied from any residual feces and the animals were then placed again into their cages. 90 Minutes after the treatment the fecal pellets were collected, their number was determined and their wet weight measured. They were then put in the oven and dried for 10 hours at 40° C. for the determination of the dry weight. The parameter used to evaluate the activity of the test compounds was the dry weight (in grams) of the feces excreted during the 90 minutes following the subcutaneous administration of the test compound.

5-HT3 receptors [3] = molecular target: T1, 5-HT3 receptors; experiment: biochemical; assay type: binding; design: the cortical tissue from 4 animals was homogenized in 20 volumes of HEPES; from tissue; host or cells: cerebral cortical membranes of male rats (about 200 g)
Protocol: The potency of the compounds of formula (I') in displacing [^3 H]
For the preparation of cerebral membranes, male rats weighing about 200 g and sacrificed by decapitation were employed. […] In summary, the cortical tissue from 4 animals was homogenized in 20 volumes of HEPES and kept at 4° C. until used in the binding assays.

[4] = system: 5-HT3 receptors (mice striatum); experiment: turning test in mice; assay type: in vivo; details: for turning behaviour after injection into the mice striatum: intrastriatal injection, inhibited by 5-HT3 receptor antagonists
Description: CM 57227 was also studied in the "turning" test carried out as described by P. Worms et al. in Life Sciences, 1986, 39, 2199-2208.

central 5-HT3 receptors = molecular target: T2, central 5-HT3 receptors (Mus musculus, UniProt P23979); experiment: ex vivo inhibition of [3H] BRL 43694 specific binding to cortical cerebral membranes in mice
T2 construct: from tissue; host or cells: cortical cerebral membranes of mice dosed intraperitoneally

dopaminergic sites D1 = dopaminergic sites D1 (Homo sapiens, UniProt P21728); experiment: displacement of labelled specific ligand from dopaminergic sites D1; assay type: binding; details: no affinity
Description: (§1) This affinity for 5-HT3 receptors is also selective.

adrenergic sites α1 = experiment: displacement of labelled specific ligand from adrenergic sites α1; assay type: binding; details: no affinity
Description: as §1

5-HT1B receptors = 5-HT1B receptors (Rattus norvegicus, UniProt P28564); experiment: displacement of labelled specific ligand from 5-HT1B receptors; assay type: binding; details: no affinity
Description: as §1

adrenergic sites β1 = adrenergic sites β1 (Homo sapiens, UniProt P08588); experiment: displacement of labelled specific ligand from adrenergic sites β1; assay type: binding; details: no affinity
Description: as §1

dopaminergic sites D2 = dopaminergic sites D2 (Homo sapiens, UniProt P14416); experiment: displacement of labelled specific ligand from dopaminergic sites D2; assay type: binding; details: no affinity
Description: as §1

adrenergic sites α2 = experiment: displacement of labelled specific ligand from adrenergic sites α2; assay type: binding; details: no affinity
Description: as §1

5-HT1A receptors = molecular target: T3, 5-HT1A receptors (Homo sapiens, UniProt P08908); experiment: displacement of labelled specific ligand from 5-HT1A receptors; assay type: binding; details: no affinity
T3 sequence (P08908 1-422): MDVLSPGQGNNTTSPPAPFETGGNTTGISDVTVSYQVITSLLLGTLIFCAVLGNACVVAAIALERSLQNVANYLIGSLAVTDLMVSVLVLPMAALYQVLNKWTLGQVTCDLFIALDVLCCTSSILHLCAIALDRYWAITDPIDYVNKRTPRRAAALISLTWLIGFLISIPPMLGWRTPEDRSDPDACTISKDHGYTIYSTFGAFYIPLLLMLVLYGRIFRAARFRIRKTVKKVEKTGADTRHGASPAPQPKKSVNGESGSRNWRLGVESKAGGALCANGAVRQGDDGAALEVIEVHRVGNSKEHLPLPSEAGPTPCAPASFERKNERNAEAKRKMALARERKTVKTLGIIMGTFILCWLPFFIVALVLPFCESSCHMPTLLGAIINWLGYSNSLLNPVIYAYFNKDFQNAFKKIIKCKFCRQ
Description: as §1

serotonin uptake sites = serotonin uptake sites (Homo sapiens, UniProt P31645); experiment: [3H] paroxetine displacement test; assay type: binding
Description: as §1

T2 sequence (P23979 24-489): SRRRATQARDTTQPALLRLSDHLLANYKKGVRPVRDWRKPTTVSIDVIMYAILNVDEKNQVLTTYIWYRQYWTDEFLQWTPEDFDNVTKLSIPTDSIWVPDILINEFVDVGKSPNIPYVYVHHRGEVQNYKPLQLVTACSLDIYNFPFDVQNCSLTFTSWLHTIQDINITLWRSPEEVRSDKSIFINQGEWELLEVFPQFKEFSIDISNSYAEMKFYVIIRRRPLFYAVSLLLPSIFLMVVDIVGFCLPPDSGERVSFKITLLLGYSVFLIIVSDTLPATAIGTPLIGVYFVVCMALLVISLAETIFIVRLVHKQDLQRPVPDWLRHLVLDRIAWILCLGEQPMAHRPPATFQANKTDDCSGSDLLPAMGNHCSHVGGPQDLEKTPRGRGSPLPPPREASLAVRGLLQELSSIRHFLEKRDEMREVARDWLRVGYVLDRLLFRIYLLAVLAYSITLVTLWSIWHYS
5-HT1B receptors, sequence (P28564 whole entry): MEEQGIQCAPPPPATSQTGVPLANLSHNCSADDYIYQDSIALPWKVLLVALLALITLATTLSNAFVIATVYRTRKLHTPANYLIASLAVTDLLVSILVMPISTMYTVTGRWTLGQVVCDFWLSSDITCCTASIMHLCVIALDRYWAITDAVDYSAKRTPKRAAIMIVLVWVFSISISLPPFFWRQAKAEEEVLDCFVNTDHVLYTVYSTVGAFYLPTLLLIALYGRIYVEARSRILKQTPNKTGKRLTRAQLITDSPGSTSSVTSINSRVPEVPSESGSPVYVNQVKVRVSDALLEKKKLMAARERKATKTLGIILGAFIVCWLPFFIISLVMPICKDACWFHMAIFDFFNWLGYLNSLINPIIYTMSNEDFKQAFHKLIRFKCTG
serotonin uptake sites, sequence (P31645 whole entry): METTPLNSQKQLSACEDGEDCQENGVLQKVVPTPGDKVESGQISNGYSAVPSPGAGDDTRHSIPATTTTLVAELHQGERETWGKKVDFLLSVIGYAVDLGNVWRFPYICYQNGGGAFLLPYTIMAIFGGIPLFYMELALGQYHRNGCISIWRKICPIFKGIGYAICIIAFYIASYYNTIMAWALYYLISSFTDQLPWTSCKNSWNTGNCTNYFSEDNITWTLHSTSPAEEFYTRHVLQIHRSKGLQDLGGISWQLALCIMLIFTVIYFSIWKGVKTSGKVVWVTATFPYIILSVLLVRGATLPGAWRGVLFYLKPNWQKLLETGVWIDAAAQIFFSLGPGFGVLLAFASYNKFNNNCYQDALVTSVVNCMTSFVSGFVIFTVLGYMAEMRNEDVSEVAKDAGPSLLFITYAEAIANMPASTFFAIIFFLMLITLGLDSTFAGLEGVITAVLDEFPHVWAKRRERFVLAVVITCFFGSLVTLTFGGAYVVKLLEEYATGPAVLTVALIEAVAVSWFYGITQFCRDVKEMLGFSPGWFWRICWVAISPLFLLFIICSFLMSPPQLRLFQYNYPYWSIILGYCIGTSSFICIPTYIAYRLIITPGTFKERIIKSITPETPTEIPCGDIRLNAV
adrenergic sites β1, sequence (P08588 whole entry): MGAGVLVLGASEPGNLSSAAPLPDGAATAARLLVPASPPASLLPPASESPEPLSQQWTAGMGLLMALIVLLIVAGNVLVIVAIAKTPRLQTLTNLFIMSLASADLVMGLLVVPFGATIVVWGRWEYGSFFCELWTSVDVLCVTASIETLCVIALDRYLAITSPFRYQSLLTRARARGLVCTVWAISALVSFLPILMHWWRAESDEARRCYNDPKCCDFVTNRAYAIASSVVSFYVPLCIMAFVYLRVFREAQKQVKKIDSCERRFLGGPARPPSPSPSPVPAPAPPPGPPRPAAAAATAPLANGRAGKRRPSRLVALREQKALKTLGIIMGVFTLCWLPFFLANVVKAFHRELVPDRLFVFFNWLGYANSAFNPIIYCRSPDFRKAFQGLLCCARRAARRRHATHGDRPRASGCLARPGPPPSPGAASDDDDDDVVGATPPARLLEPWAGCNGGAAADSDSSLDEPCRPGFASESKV
dopaminergic sites D1, sequence (P21728 whole entry): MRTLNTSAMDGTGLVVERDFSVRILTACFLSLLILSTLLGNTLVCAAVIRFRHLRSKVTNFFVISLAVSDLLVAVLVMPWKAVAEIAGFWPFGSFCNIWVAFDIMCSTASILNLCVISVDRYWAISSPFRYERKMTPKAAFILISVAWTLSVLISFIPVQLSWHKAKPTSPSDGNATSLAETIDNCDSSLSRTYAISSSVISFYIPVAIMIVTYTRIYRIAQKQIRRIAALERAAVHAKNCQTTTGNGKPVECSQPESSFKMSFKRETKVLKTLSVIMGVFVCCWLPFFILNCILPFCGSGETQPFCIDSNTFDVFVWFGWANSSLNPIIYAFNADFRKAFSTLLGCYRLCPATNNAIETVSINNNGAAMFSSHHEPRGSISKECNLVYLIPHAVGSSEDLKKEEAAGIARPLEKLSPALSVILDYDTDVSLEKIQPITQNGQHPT
dopaminergic sites D2, sequence (P14416 whole entry): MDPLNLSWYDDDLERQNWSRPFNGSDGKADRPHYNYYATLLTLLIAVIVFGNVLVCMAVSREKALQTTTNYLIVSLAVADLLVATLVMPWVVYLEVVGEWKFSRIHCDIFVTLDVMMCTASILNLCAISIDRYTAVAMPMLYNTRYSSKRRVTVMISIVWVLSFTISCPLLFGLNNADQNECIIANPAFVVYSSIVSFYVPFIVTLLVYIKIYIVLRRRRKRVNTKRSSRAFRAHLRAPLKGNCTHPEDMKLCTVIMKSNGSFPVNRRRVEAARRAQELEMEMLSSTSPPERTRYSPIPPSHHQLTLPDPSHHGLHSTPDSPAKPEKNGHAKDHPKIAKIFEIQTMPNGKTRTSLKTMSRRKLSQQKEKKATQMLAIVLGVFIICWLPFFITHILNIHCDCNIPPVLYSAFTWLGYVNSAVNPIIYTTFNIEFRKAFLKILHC

## CC[C@@H](CO)NC(=O)[C@@H]1C=C2c3cccc4c3c(cn4C)C[C@H]2N(C)C1 [methysergide]
5-HT3 receptors [1]
  inhibition of the Bezold-Jarish effect evoked by compounds of formula (I'): not inhibited

## NCCc1c[nH]c2ccc(O)cc12 [serotonin]
5-HT3 receptors [1]; iv
  ED50: 0.0136 mg/kg

## COc1cc(N)c(Cl)cc1C(=O)NC1CN2CCC1CC2 (stereo not shown) [zacopride]
5-HT3 receptors [2]
  antagonism of the fecal excretion stimulating activity of compounds of formula (I'): antagonised
5-HT3 receptors [1]
  inhibition of the Bezold-Jarish effect evoked by compounds of formula (I'): inhibited

## Cc1[nH]c2ccc(O)cc2c1CCN [2-methylserotonin, reference compound]
5-HT3 receptors [3]
  Ki: 1.11 µM
[4]
  turning behaviour after injection into the mice striatum: evokes a turning behaviour
5-HT3 receptors [1]; anaesthetised Sprague-Dawley rats, intravenous
  ED50: 0.005 mg/kg

## Cl.NC1CCN(c2cccc(Cl)n2)CC1 [CM 57227, 4-amino-1-(6-chloro-2-pyridyl)piperidine hydrochloride]
Central 5-HT3 receptors; mice, oral administration, compared with ID50 i.p. of 1 mg/kg
  ID50 p.o., extrapolated to zero dilution: of the same magnitude order
Central 5-HT3 receptors; mouse, ip, 0.5 h, read-out: ID50 i.p., extrapolated to zero dilution (dose inhibiting by 50% [3H] BRL 43694 binding), mice, 30 minutes after i.p. administration
  ED50: 1 mg/kg
Central 5-HT3 receptors; same experimental conditions
  ID50 for [3H] BRL 43694 binding compared with ID50 for [3H] paroxetine (serotonin uptake sites): markedly lower
5-HT3 receptors [3]; 0.5 nM [3H] BRL 43694, 30 minutes at 25° C., rat cortical membranes, read-out: Ki, displacement of [3H] BRL 43694
  Ki: 0.193 µM
Dopaminergic sites D1
  Ki: > 10 µM
[4]; Mus musculus, ip, mice, test compound i.p., ondansetron 1 mg/kg i.p., intrastriatal 2-methylserotonin, read-out: ED50, blockade of ondansetron antagonism of 2-methylserotonin-induced turning behaviour
  ED50: 0.25 mg/kg
[4]
  turning behaviour after injection into the mice striatum: evokes a turning behaviour
Adrenergic sites α1
  Ki: > 10 µM
5-HT1B receptors
  Ki: > 10 µM
5-HT3 receptors [2]; 2.5 mg/kg s.c.
  dry weight of feces excreted during 90 minutes: about 1.3 g
Adrenergic sites β1
  Ki: > 10 µM
Dopaminergic sites D2
  Ki: > 10 µM
Adrenergic sites α2
  Ki: > 10 µM
5-HT1A receptors
  Ki: > 10 µM
5-HT3 receptors [1]; iv
  ED50: 0.00829 mg/kg
Serotonin uptake sites
  Ki: > 10 µM

## CN1C2CCC1CC(OC(=O)c1c[nH]c3ccccc13)C2 (stereo not shown) [ICS 205-930]
5-HT3 receptors [2]
  antagonism of the fecal excretion stimulating activity of compounds of formula (I'): antagonised
5-HT3 receptors [1]
  inhibition of the Bezold-Jarish effect evoked by compounds of formula (I'): inhibited
